The subject of experiment [1] is rat model of middle cerebral artery occlusion (MCAo). The experiment in a line: Cerebral ischemia (MCAo) infarct volume. The format is in vivo. From the text:
Adult male Sprague Dawley rats weighting ˜200 g were anesthetized, and the middle cerebral artery (MCA) was exposed by making a craniotomy window (2 mm in diameter) 1 mm rostral to the anterior junction of the zygoma and the squamosal bone. We used the suture ligation method to achieve three-vessel occlusion. The exposed MCA was ligated with a square knot using a 10-0 nylon suture. Next, the bilateral common carotid arteries (CCAs) were clamped with nontraumatic arterial clips. Successful surgery was confirmed by a marked drop in regional cerebral blood flow, monitored by a laser Doppler flowmeter (PF-5010, Periflux system; Perimed AB). After 90 min ischemia, the suture and clips were removed to allow instant reperfusion. Experimental rats were subdivided into groups to receive different doses of Npam43 or saline/vehicle (as indicated) via femoral vein injection. 2,3,5-Triphenyltetrazolium chloride (TTC) was used to evaluate infarct size in stained brain sections. […]
The rats were anesthetized, with body temperature maintained at 37.0±0.5° C. with a heating pad during imaging. […] The non-infarct areas were drawn manually from slice to slice and the volumes were measured with Voxtool analysis software (General Electric). The infarct size was quantified by subtracting the non-infarct volume of the ischemic hemisphere from the total volume of the contralateral hemisphere. […]

A further experiment concerns the target T1, GluN1^L135Q/GluN2A^F115S (Rattus norvegicus, UniProt P35439+Q00959, F115S/L135Q).
T1 construct: expressed in transfected cells; host or cells: HEK293
Description: Patch clamp in HEK293 cells expressing double mutant GluN1 L135Q/GluN2A F115S. The format is cell-based. As for the experimental part:
(§1) Whole cell patch-clamp recordings were performed under voltage-clamp mode using an Axopatch 200B or 1D patch-clamp amplifier (Molecular Devices). Whole-cell currents were recorded at a holding potential of −60 mV unless indicated elsewhere, and signals were filtered at 2 kHz, digitized at 10 kHz (Digidata 1322A). Recording pipettes (3-5 MΩ) were filled with intracellular solution containing (mM): CsCl 140, HEPES 10, Mg-ATP 4, QX-314 5, pH 7.20; osmolarity, 290-295 mOsm. BAPTA (10 mM) was added in the intracellular solution (unless otherwise specified). The coverslips were continuously superfused with extracellular solution containing (mM): NaCl 140, KCl 5.4, HEPES 10, CaCl2 1.3, glucose 20, pH 7.4; osmolarity, 305-315 mOsm. NMDA-induced currents were applied by NMDA through perfusion fast-step (Warner Instruments). With perfusion fast-step system, NMDA application was achieved by using a two-square barrel glass tubing and depending on the age of the cultured neurons, CNQX (10 μM), TTX (0.5 μM) or BIC (10 μM) were added in the extracellular solution to minimize the activation of ionotropic glutamate receptors and voltage-gated sodium channels, respectively. All experiments were performed at room temperature. Recordings from at least six HEK293 cells/neurons were performed for all active compounds. […]

The target in the next experiment is T2, GluN1/GluN2A^P178G (Rattus norvegicus, UniProt P35439+Q00959, P178G).
T2 construct: expressed in transfected cells; host or cells: HEK293
T2 sequence (Q00959 23-1464 P178G, other chains not shown): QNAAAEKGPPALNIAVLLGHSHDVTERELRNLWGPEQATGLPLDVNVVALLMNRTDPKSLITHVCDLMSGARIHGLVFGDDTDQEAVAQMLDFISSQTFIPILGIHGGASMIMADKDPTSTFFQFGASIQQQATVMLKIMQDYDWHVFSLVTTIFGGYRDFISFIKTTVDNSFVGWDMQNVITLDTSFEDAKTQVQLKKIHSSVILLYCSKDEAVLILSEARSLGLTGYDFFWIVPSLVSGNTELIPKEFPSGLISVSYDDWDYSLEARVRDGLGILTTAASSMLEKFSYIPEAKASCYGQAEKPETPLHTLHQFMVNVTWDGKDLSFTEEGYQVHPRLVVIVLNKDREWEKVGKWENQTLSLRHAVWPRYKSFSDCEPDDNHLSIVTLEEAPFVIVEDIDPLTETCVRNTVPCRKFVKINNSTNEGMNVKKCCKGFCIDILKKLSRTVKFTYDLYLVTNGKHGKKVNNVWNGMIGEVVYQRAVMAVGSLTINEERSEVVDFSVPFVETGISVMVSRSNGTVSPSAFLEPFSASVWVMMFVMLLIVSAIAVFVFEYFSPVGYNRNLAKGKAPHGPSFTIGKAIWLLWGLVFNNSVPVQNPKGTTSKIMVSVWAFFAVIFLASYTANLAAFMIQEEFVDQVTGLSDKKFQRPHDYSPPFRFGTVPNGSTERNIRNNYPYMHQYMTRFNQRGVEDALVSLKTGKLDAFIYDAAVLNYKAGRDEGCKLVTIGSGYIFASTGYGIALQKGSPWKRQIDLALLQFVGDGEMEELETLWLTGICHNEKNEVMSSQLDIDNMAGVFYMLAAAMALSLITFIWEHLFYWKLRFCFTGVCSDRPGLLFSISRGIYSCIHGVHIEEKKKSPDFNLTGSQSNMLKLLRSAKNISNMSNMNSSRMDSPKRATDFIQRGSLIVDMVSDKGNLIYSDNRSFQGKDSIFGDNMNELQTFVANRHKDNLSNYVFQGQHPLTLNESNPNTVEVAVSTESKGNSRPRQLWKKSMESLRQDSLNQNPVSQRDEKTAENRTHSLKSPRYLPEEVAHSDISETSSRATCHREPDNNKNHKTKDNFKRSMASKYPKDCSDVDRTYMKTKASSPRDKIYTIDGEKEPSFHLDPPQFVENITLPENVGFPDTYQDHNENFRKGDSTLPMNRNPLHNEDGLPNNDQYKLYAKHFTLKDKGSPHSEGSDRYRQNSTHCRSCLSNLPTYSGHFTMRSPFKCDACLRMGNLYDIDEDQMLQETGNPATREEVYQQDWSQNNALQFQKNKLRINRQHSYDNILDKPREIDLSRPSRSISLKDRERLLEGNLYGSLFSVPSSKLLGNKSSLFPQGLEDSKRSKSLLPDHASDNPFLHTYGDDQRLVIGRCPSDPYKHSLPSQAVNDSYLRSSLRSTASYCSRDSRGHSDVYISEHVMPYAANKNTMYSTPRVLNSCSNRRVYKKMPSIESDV
The experiment in a line: Patch clamp in HEK293 cells expressing mutant GluN1/GluN2A P178G. The experiment is classed as cell-based. As for the experimental part: as §1

In the next experiment the target is T3, GluN1/GluN2A^F115S (Rattus norvegicus, UniProt P35439+Q00959, F115S).
T3 construct: expressed in transfected cells; host or cells: HEK293
T3 sequence (Q00959 23-1464 F115S, other chains not shown): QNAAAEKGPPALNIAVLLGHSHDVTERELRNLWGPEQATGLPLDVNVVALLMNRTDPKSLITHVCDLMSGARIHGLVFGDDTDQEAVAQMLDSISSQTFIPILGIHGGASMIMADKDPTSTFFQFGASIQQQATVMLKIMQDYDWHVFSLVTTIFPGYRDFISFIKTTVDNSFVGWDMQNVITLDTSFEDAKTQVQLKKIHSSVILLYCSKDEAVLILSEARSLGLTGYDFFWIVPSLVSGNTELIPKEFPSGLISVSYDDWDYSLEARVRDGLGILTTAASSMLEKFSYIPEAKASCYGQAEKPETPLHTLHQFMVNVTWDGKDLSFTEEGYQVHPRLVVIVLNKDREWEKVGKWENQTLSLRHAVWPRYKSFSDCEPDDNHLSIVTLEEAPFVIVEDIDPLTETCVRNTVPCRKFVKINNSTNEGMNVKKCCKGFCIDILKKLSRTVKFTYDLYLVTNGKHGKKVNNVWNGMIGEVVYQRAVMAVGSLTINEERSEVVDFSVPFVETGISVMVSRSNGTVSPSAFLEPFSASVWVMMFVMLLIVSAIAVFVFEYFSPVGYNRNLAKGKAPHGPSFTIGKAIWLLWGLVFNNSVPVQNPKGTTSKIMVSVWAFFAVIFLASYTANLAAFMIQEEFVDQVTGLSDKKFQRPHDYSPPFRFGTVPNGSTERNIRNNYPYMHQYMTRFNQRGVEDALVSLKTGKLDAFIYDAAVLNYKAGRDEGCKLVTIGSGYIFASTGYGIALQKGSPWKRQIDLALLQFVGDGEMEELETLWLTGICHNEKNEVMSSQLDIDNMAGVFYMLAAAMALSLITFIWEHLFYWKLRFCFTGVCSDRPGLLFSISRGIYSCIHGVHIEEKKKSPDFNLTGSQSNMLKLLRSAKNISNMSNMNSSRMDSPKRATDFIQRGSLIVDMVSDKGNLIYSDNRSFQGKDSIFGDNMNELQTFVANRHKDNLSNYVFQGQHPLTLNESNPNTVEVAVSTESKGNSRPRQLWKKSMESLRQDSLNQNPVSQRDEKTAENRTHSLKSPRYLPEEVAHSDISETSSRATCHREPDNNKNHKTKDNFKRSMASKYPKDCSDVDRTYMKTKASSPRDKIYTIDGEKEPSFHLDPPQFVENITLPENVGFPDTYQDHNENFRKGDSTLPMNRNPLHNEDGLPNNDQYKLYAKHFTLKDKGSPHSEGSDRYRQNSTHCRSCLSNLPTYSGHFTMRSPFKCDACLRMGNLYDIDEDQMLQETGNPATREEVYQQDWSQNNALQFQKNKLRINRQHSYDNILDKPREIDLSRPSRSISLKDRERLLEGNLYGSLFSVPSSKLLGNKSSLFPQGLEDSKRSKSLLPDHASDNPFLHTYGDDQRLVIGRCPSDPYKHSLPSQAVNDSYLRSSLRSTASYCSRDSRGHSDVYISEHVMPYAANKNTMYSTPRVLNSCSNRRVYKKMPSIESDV
Description: Patch clamp in HEK293 cells expressing mutant GluN1/GluN2A F115S. The format is cell-based. As for the experimental part:
as §1

T1 sequence (Q00959 23-1464 F115S, other chains not shown): as above

As for `CCOc1cc(Cl)c(Cl)c(/C=N/NC(=O)c2ccccc2Br)c1O` [Npam43, (E)-2-bromo-N′-(2,3-dichloro-5-ethoxy-6-hydroxybenzylidene)benzohydrazide], the “Infarct size, long term evaluation point” value in experiment [1] (7 days, MRI scanning, FIG. 25) is “reduces infarct size”. Moreover, the Infarct volume result in experiment [1] (MCAo rats, compared to vehicle/saline, 24 h post ischemia (FIG. 24)) is reported as “reduces infarct volume”. For the same molecule, the “Net Difference potentiation” value was −93.9±10.3% at GluN1^L135Q/GluN2A^F115S (GluN1 L135Q/GluN2A F115S double mutation, normalized to wild-type); −54.3 ± 0.42% at GluN1/GluN2A^P178G (normalized to wild-type); −67.4±11.8% at GluN1/GluN2A^F115S (normalized to wild-type). The Relative potentiation is 12.7 ± 1.8% on GluN1^L135Q/GluN2A^F115S (Table 3, GluN1 L135Q/GluN2A F115S); 95.5 ± 3.8% at GluN1/GluN2A^P178G (Table 3); 68.1 ± 14.1% at GluN1/GluN2A^F115S (Table 3).

For the origin of these results see patent publication US11166924B2, “N-methyl-d-aspartate receptor allosteric modulators and methods for their use” (Qingdao Primedicine Pharmaceutical Company, Ltd., priority 2016, dated 2021).
